Legend:
A673 cells [1] = assay: Cytotoxicity assay in A673 cells; type: cell-based, human; conditions: for IC50: Homo sapiens, A673, 48 h, read-out: A673 cells Cytotox. IC50
A673 cells [2] = assay: Cellular lactate production assay in A673 cells; type: cell-based, human; conditions: for IC50: Homo sapiens, A673, 0.5 h, read-out: A673 cells lactate inh. IC50
MiaPaCa-2 cells [3] = assay: Cellular lactate production assay in MiaPaCa-2 cells; type: cell-based; conditions: Homo sapiens, MIA PaCa-2, 0.5 h, read-out: MiaPaCa-2 cells lactate inh. IC50
MiaPaCa-2 cells [4] = assay: Cytotoxicity assay in MiaPaCa-2 cells; type: cell-based; conditions: Homo sapiens, MIA PaCa-2, 48 h, read-out: MiaPaCa-2 cells Cytotox. IC50
LDHA = LDHA (Homo sapiens, UniProt P00338); assay: Biochemical LDHA inhibition assay
[5] = biological target: LDHA with C-terminal HiBiT fusion tag (Homo sapiens, UniProt P00338); assay: SplitLuc CETSA; type: cell-based
[6] = Mouse pharmacokinetic studies; type: in vivo, CD1 mice; conditions: male, CD1, mouse, plasma, iv, 10 mg/kg
[7] = system: tumor LDH activity (A673 flank xenograft); assay: In vivo LDHA activity in A673 xenograft tumor mouse model; conditions: single IV 50 mg/kg, A673 xenograft mice
[8] = both cell lines (A673 and MiaPaCa-2)

| SMILES | IC50 (MiaPaCa-2 cells [3]) [nM] | IC50 (LDHA) [nM] | IC50 [5] [nM] | IC50 (A673 cells [2]) [nM] | IC50 (A673 cells [1]) [nM] | further results |
| --- | --- | --- | --- | --- | --- | --- |
| C#Cc1cc(-c2nn(-c3nc(C(=O)O)cs3)c(CC3CC3)c2Cc2ccc(S(N)(=O)=O)c(F)c2)ccc1F [Compound 11, 2-(5-(Cyclopropylmethyl)-3-(3-ethynyl-4-fluorophenyl)-4-(3-fluoro-4-sulfamoylbenzyl)-1H-pyrazol-1-yl)thiazole-4-carboxylic Acid] | – | – | – | – | – | loss in potency in cytotoxicity relative to 10 (A673 cells [1]; [8]): < 3 fold; loss in potency toward lactate output relative to 10 (A673 cells [2]; [8]): < 2 fold |
| NS(=O)(=O)c1ccc(Cc2c(-c3ccc(F)c(C#CC4(F)CCCC4)c3)nn(-c3nc(C(=O)O)cs3)c2CC2CC2)cc1F [Compound 24, 2-(5-(Cyclopropylmethyl)-3-(4-fluoro-3-((1-fluorocyclopentyl)-ethynyl)phenyl)-4-(3-fluoro-4-sulfamoylbenzyl)-1H-pyrazol-1-yl)-thiazole-4-carboxylic Acid] | 454 | 33 | 95 | 450 | 689 | IC50 (MiaPaCa-2 cells [4]): 593 nM |
| NS(=O)(=O)c1ccc(Cc2c(-c3ccc(F)c(C#CC4(O)CCCC4)c3)nn(-c3nc(C(=O)O)cs3)c2CC2CC2)cc1F [Compound 25, 2-(5-(Cyclopropylmethyl)-3-(4-fluoro-3-((1-hydroxycyclopentyl)-ethynyl)phenyl)-4-(3-fluoro-4-sulfamoylbenzyl)-1H-pyrazol-1-yl)-thiazole-4-carboxylic Acid] | 1480 | 7 | 150 | 1930 | 2190 | IC50 (MiaPaCa-2 cells [4]): 2180 nM |
| NS(=O)(=O)c1ccc(Cc2c(-c3ccc(F)c(C#CC4(F)COC4)c3)nn(-c3nc(C(=O)O)cs3)c2CC2CC2)cc1F [Compound 27, 2-(5-(Cyclopropylmethyl)-3-(4-fluoro-3-((3-fluorooxetan-3-yl)-ethynyl)phenyl)-4-(3-fluoro-4-sulfamoylbenzyl)-1H-pyrazol-1-yl)-thiazole-4-carboxylic Acid] | 1050 | 7 | 126 | 1320 | 2650 | IC50 (MiaPaCa-2 cells [4]): 2260 nM |
| NS(=O)(=O)c1ccc(Cc2c(-c3ccc(F)c(C#CC4(O)COC4)c3)nn(-c3nc(C(=O)O)cs3)c2CC2CC2)cc1F [Compound 28, 2-(5-(Cyclopropylmethyl)-3-(4-fluoro-3-((3-hydroxyoxetan-3-yl)-ethynyl)phenyl)-4-(3-fluoro-4-sulfamoylbenzyl)-1H-pyrazol-1-yl)-thiazole-4-carboxylic Acid] | 4870 | 6 | 1500 | 12200 | 3590 | IC50 (MiaPaCa-2 cells [4]): 2990 nM |
| Cc1ccc(C#Cc2cc(-c3nn(-c4nc(C(=O)O)cs4)c(CC4CC4)c3Cc3ccc(S(N)(=O)=O)c(F)c3)ccc2F)o1 [Compound 44, 2-(5-(Cyclopropylmethyl)-3-(4-fluoro-3-((5-methylfuran-2-yl)-ethynyl)phenyl)-4-(3-fluoro-4-sulfamoylbenzyl)-1H-pyrazol-1-yl)-thiazole-4-carboxylic Acid] | – | – | – | – | – | clearance at 24 h [6]: 75 mL/min/kg |
| Cc1ncc(C#Cc2cc(-c3nn(-c4nc(C(=O)O)cs4)c(CC4CC4)c3Cc3ccc(S(N)(=O)=O)c(F)c3)ccc2F)s1 [Compound 46, 2-(5-(Cyclopropylmethyl)-3-(4-fluoro-3-((2-methylthiazol-5-yl)-ethynyl)phenyl)-4-(3-fluoro-4-sulfamoylbenzyl)-1H-pyrazol-1-yl)-thiazole-4-carboxylic Acid] | – | – | – | – | – | clearance at 24 h [6]: 97 mL/min/kg |
| NS(=O)(=O)c1ccc(Cc2c(-c3cccc(C#Cc4ccc(C5CC5)s4)c3)nn(-c3nc(C(=O)O)cs3)c2CC2CC2)cc1F [Compound 56, 2-(5-(Cyclopropylmethyl)-3-(3-((5-cyclopropylthiophen-2-yl)-ethynyl)phenyl)-4-(3-fluoro-4-sulfamoylbenzyl)-1H-pyrazol-1-yl)-thiazole-4-carboxylic Acid] | – | – | – | – | – | effect on LDH activity in tumors (in words) [7]: moderate inhibition; inhibition of tumor LDH activity at 6 h postdose ([7]; 6 h): failed to maintain significant inhibition |
| Cc1ccc(C#Cc2cccc(-c3nn(-c4nc(C(=O)O)cs4)c(CC4CC4)c3Cc3ccc(S(N)(=O)=O)c(F)c3)c2)o1 [Compound 61, 2-(5-(Cyclopropylmethyl)-4-(3-fluoro-4-sulfamoylbenzyl)-3-(3-((5-methylfuran-2-yl)ethynyl)phenyl)-1H-pyrazol-1-yl)thiazole-4-carboxylic Acid] | – | – | – | – | – | clearance at 24 h [6]: 72.3 mL/min/kg |
| NS(=O)(=O)c1ccc(Cc2c(-c3ccc(F)c(/C=C/C4CCCC4)c3)nn(-c3nc(C(=O)O)cs3)c2CC2CC2)cc1F [Compound 69, (E)-2-(3-(3-(2-Cyclopentylvinyl)-4-fluorophenyl)-5-(cyclopropylmethyl)-4-(3-fluoro-4-sulfamoylbenzyl)-1H-pyrazol-1-yl)thiazole-4-carboxylic Acid] | – | – | – | – | – | effect on LDH activity in tumors (in words) [7]: less effects; clearance at 24 h [6]: 74.7 mL/min/kg |
| C/C=C/c1cc(-c2nn(-c3nc(C(=O)O)cs3)c(CC3CC3)c2Cc2ccc(S(N)(=O)=O)c(F)c2)ccc1F [Compound 71, (E)-2-(5-(Cyclopropylmethyl)-3-(4-fluoro-3-(prop-1-en-1-yl)phenyl)-4-(3-fluoro-4-sulfamoylbenzyl)-1H-pyrazol-1-yl)thiazole-4carboxylic Acid] | – | – | – | – | – | effect on LDH activity in tumors (in words) [7]: less effects |
| Cc1ccc(C#Cc2cc(-c3nn(-c4nc(C(=O)O)cs4)c(CCC4CC4)c3Cc3ccc(S(N)(=O)=O)c(F)c3)ccc2F)s1 [Compound 74, 2-(5-(2-Cyclopropylethyl)-3-(4-fluoro-3-((5-methylthiophen-2yl)ethynyl)phenyl)-4-(3-fluoro-4-sulfamoylbenzyl)-1H-pyrazol-1-yl)thiazole-4-carboxylic Acid] | – | – | – | – | – | effect on LDH activity in tumors (in words) [7]: moderate inhibition; AUC(0-t) [6]: 6650 ng·h/mL; clearance [6]: 74.7 mL/min/kg |
| Cc1ccc(C#Cc2cccc(-c3nn(-c4nc(C(=O)O)cs4)c(CCC4CC4)c3Cc3ccc(S(N)(=O)=O)c(F)c3)c2)s1 [Compound 75, 2-(5-(2-Cyclopropylethyl)-4-(3-fluoro-4-sulfamoylbenzyl)-3-(3-((5-methylthiophen-2-yl)ethynyl)phenyl)-1H-pyrazol-1-yl)thiazole-4-carboxylic Acid] | – | – | – | – | – | clearance at 24 h [6]: 18.6 mL/min/kg |
| Cc1ccc(C#Cc2cccc(-c3nn(-c4nc(C(=O)O)cs4)c(C4CC4C4CC4)c3Cc3ccc(S(N)(=O)=O)c(F)c3)c2)s1 (stereo not shown) [Compound 88, 2-(5-([1,1′-Bi(cyclopropan)]-2-yl)-4-(3-fluoro-4-sulfamoylbenzyl)-3-(3-((5-methylthiophen-2-yl)ethynyl)phenyl)-1H-pyrazol-1-yl)thiazole-4-carboxylic Acid] | 515 | 1170 | 1030 | 364 | 4690 | – |
| Cc1ccc(C#Cc2cccc(-c3nn(-c4nc(C(=O)O)cs4)c(C(C4CC4)C4CC4)c3Cc3ccc(S(N)(=O)=O)c(F)c3)c2)s1 [Compound 89, 2-(5-(Dicyclopropylmethyl)-4-(3-fluoro-4-sulfamoylbenzyl)-3-(3-((5-methylthiophen-2-yl)ethynyl)phenyl)-1H-pyrazol-1-yl)thiazole-4-carboxylic Acid] | 1220 | 5270 | 3180 | 1860 | 26400 | – |

Second part, led by results:

| IC50 (MiaPaCa-2 cells [3]) [nM] | IC50 (LDHA) [nM] | IC50 [5] [nM] | IC50 (A673 cells [2]) [nM] | SMILES | IC50 (A673 cells [1]) [nM] | further results |
| --- | --- | --- | --- | --- | --- | --- |
| 972 | 39 | 398 | 713 | C=C(c1cc(-c2nn(-c3nc(C(=O)O)cs3)c(CC3CC3)c2Cc2ccc(S(N)(=O)=O)c(F)c2)ccc1F)C(F)(F)F [Compound 73, 2-(5-(Cyclopropylmethyl)-3-(4-fluoro-3-(3,3,3-trifluoroprop-1-en-2-yl)phenyl)-4-(3-fluoro-4-sulfamoylbenzyl)-1H-pyrazol-1-yl)-thiazole-4-carboxylic Acid] | 16000 | – |
| 254 | 160 | 142 | 434 | Cc1cc(C#Cc2cccc(-c3nn(-c4nc(C(=O)O)cs4)c(CCC4CC4)c3Cc3ccc(S(N)(=O)=O)c(F)c3)c2)cs1 [Compound 77, 2-(5-(2-Cyclopropylethyl)-4-(3-fluoro-4-sulfamoylbenzyl)-3-(3-((5-methylthiophen-3-yl)ethynyl)phenyl)-1H-pyrazol-1-yl)thiazole-4-carboxylic Acid] | 197 | – |
| 1030 | 874 | 708 | 685 | Cc1ccc(C#Cc2cccc(-c3nn(-c4nc(C(=O)O)cs4)c(C(C)C4CC4)c3Cc3ccc(S(N)(=O)=O)c(F)c3)c2)s1 (stereo not shown) [Compound 84, 2-(5-(1-Cyclopropylethyl)-4-(3-fluoro-4-sulfamoylbenzyl)-3-(3-((5-methylthiophen-2-yl)ethynyl)phenyl)-1H-pyrazol-1-yl)thiazole-4-carboxylic Acid] | 968 | – |
| 5140 | 4540 | 10800 | 18300 | Cc1ccc(C#Cc2cccc(-c3nn(-c4nc(C(=O)O)cs4)c(C(C)(C)C4CC4)c3Cc3ccc(S(N)(=O)=O)c(F)c3)c2)s1 [Compound 85, 2-(5-(2-Cyclopropylpropan-2-yl)-4-(3-fluoro-4-sulfamoylbenzyl)-3-(3-((5-methylthiophen-2-yl)ethynyl)phenyl)-1H-pyrazol-1-yl)-thiazole-4-carboxylic Acid] | 5900 | – |
| 409 | 307 | 251 | 346 | Cc1ccc(C#Cc2cccc(-c3nn(-c4nc(C(=O)O)cs4)c(CC4(C)CC4)c3Cc3ccc(S(N)(=O)=O)c(F)c3)c2)s1 [Compound 86, 2-(4-(3-Fluoro-4-sulfamoylbenzyl)-5-((1-methylcyclopropyl)-methyl)-3-(3-((5-methylthiophen-2-yl)ethynyl)phenyl)-1H-pyrazol-1-yl)thiazole-4-carboxylic Acid] | 590 | – |

Source: publication PMC7830743 (Journal of medicinal chemistry, 2020)
